Columns and labels:
p38α MAP kinase = target: T1, p38α MAP kinase (Homo sapiens, UniProt Q16539); assay: p38α MAP kinase assay (immunoprecipitated FLAG-p38α, GST-ATF-2 substrate); type: biochemical; conditions: FLAG-p38α from COS-1 cells, 50 μM ATP; read-out: p38 MAP kinase IC50
T1 construct: made in house; host or cells: COS-1 cells (transient co-transfection; anti-FLAG M2 immunoprecipitation)
Protocol: COS-1 cells (derived from African green monkey kidney fibroblast-like cell containing wild-type T antigen under control of the SV40 promotor) were obtained from ATCC (ATCC no. CRL-1650) and grown in growth medium (DMEM without phenoired, 10% FCS, 2 mM L-glutamine, 100 U penicillin and 100 μg streptomycin/ml) at 37° C. with 5% CO2. The cells were passaged twice a week by trypsination (0.25% trypsin, 1 mM EDTA in PBS) and were split 1:10. The medium was changed every second or third day. The cell line was regularly tested with the Mycoplasma PCR Primer Set (Stratagene) and found to be free of Mycoplasma. Tissue culture media, FCS, L-glutamine and penicillin and streptomycin are from Bribco BRL, Gaithersburg, Md., USA.
Transient Expression of COS-1 Cells
On day one COS-1 cells were seeded in 143 cm^2 petri dish with a density of 2×10^4 celler/cm^2 in growth medium. At day 2 the cells were co-transfected with 5 μg (total) of experimental plasmid DNA, expressing the FLAG-p38α and FLAG-MKK6(EE). The plasmids were introduced into the COS-1 cells in serum-free medium using DOTAP™ (Boehringer-Mannheim, Mannheim, Germany). Plasmid DNA was prepared and purified using the QIAGEN EndoToxin-free Maxiprep-500 kit (Hilden, Germany). Briefly, DNA and DOTAP™ were mixed for exactly 15 min. at 37° C. In the CO2 incubator. […]

[1] = system: LPS induced TNF-α response; assay: In vivo screening model of LPS induced TNF-α response in mice; conditions: Mus musculus, mice (C3H/HeN), dosed 1 hour prior to LPS, plasma TNF-α 80-90 minutes after LPS, vs LPS treated control group, read-out: In vivo inhibition of LPS induced TNF-α production (in %)
Outline: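 Female C3H/HeN mice (~8 weeks) dosed with compound in suspension vehicle at 10 mg/kg 1 h before ip LPS (E. coli 055:B5, 1.0 mg/kg); plasma drawn 80-90 min post-LPS. TNF-α measured by sandwich ELISA (OD 450 nm minus 620 nm). Reported as % inhibition versus LPS-treated controls, Mann-Whitney test.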

IL-1β = assay: Inhibition of IL-1β secretion in LPS stimulated peripheral blood mononuclear cells; type: cell-based; conditions: PBMC; LPS stimulated human peripheral blood mononuclear cells, 18 hours, ELISA; read-out: The median inhibition concentration (IC50, nM) of IL-1β
Outline: (§1)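 Human PBMCs (5×10^5 cells/ml, RPMI 1640 + 2% FCS) pre-treated with compound 30 min, then stimulated with LPS ([…]) for 18 h. Secreted IL-1β and TNF-α quantified by ELISA; IC50 values calculated.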

TNF-α = assay: Inhibition of TNF-α secretion in LPS stimulated peripheral blood mononuclear cells; type: cell-based; conditions: PBMC; LPS stimulated human peripheral blood mononuclear cells, 18 hours, ELISA; read-out: The median inhibition concentration (IC50, nM) of TNF-α
Outline: as §1

T1 sequence (Q16539 whole entry): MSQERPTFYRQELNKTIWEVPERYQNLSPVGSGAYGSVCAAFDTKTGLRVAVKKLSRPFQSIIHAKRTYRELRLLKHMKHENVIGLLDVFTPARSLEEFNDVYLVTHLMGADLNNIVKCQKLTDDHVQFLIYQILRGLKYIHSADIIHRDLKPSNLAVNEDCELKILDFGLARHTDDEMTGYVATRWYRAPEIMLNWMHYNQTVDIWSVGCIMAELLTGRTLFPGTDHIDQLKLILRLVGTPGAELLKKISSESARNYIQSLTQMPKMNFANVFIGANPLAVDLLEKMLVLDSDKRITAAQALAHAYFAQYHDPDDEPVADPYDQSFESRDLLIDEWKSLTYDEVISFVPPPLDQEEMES

IC50 (p38α MAP kinase): 2 nM
IC50 (IL-1β): 4 nM
IC50 (TNF-α): 0.6 nM
Compound: Cc1ccc(C(=O)NCCO)cc1C(=O)c1ccc(Nc2ccccc2N)cc1Cl [Compound 112, 3-[4-(2-Aminophenylamino)-2-chlorobenzoyl]-N-(2-hydroxyethyl)-4-methylbenzamide]
inhibition at 10 mg/kg [1]: 96%
